According to patent publication US9080214B2, “Genetic markers for efficacy of iloperidone in the treatment of psychotic symptoms” (Vanda Pharmaceuticals, Inc., priority 2007, dated 2015):

System: individuals diagnosed with schizophrenia
Test: Change in PANSS-T by SNP genotype, patients on iloperidone 24 mg/day b.i.d. for 28 days (MMRM, LOCF)
Type: in vivo, human
Text: Earlier studies investigated an association between a polymorphism in the CNTF gene and iloperidone efficacy as well as associations between CYP2D6 and KCNQ1 genotypes and changes in QT interval following the administration of iloperidone. The present study involved the genotyping of DNA samples collected from 426 individuals diagnosed with schizophrenia in an attempt to identify additional SNPs associated with iloperidone efficacy. Each sample was genotyped at more than 500,000 SNP loci using the GeneChip® Human Mapping 500K Array Set (Affymetrix, Santa Clara, Calif.) and using assays developed in-house. Approximately half of the participants in the study were administered 24 mg/day of iloperidone, b.i.d., for 28 days. About 25% of the patients were administered ziprasidone. The remaining participants were administered a placebo. Three analyses of the PANSS-T were conducted. 1) A two-step approach where samples were randomly split into 2 groups of iloperidone-treated patients used to discover SNPs associated with changed in PANSS-T (Discovery phase) and a second group to confirm the 100 most significant SNPs (Confirmatory phase). 2) A one-step approach using the Last Observation Carried Forward (LOCF) PANSS-T data of all iloperidone-treated patients. For each SNP, the most parsimonious genetic model (e.g., homozygous for one allele v. all other genotypes [i.e., AA v. AB and BB], heterozygous v. homozygous [i.e., AB v. AA and BB]) was established with respect to iloperidone efficacy using a one-way analysis of variance (ANOVA). 3) A Mixed-effects Model Repeated Measures (MMRM) analysis was subsequently conducted using the best genetic model of each SNP in the MMRM model. MMRM analyses were also conducted with the PANSS subscales PANSS-P, PANSS-N, and PANSS-GP. The SNPs with a statistically significant association in all 3 analyses of PANSS-T, as well as the best of each analysis were considered significant findings and are listed below in Table 1. Results for each of these SNPs with the PANSS-T scales and with the three subscales PANSS-P, PANSS-N, and PANSS-GP are shown in Tables 2, 3, 4, and 5, respectively. As used herein, “greater iloperidone efficacy” means an improvement in PANSS-T score of at least about 20%. In the current study, this means an improvement of at least 13 points.

## COc1cc(C(C)=O)ccc1OCCCN1CCC(c2noc3cc(F)ccc23)CC1 [iloperidone, 1-[4-[3-[4-(6-fluoro-1,2-benzisoxazol-3-yl)-1-piperidinyl]propoxy]-3-methoxyphenyl]ethanone]
SNP_A-1819750 (CREG1) genotype A_A
  mean of change in PANSS-T: −18.13
SNP_A-1819750 (CREG1) genotype A_B*
  mean of change in PANSS-T: −10.74
SNP_A-1819750 (CREG1) genotype B_B
  mean of change in PANSS-T: −16.05
SNP_A-1819750 (CREG1) genotype nonAB**
  mean of change in PANSS-T: −16.72
SNP_A-1860353 (RAP1B) genotype A_A**
  mean of change in PANSS-T: −37.40
SNP_A-1860353 (RAP1B) genotype A_B
  mean of change in PANSS-T: −11.79
SNP_A-1860353 (RAP1B) genotype B_B
  mean of change in PANSS-T: −11.84
SNP_A-1860353 (RAP1B) genotype nonAA*
  mean of change in PANSS-T: −11.83
SNP_A-1934663 genotype A_A
  mean of change in PANSS-T: −18.67
SNP_A-1934663 genotype A_B
  mean of change in PANSS-T: −18.34
SNP_A-1934663 genotype B_B*
  mean of change in PANSS-T: −8.39
SNP_A-1934663 genotype nonBB**
  mean of change in PANSS-T: −18.40
SNP_A-1973093 (KIAA0040) genotype A_A
  mean of change in PANSS-T: −14.99
SNP_A-1973093 (KIAA0040) genotype A_B*
  mean of change in PANSS-T: −6.21
SNP_A-1973093 (KIAA0040) genotype B_B
  mean of change in PANSS-T: −16.73
SNP_A-1973093 (KIAA0040) genotype nonAB**
  mean of change in PANSS-T: −16.39
SNP_A-1975928 (SLC2A9) genotype A_A
  mean of change in PANSS-T: −13.09
SNP_A-1975928 (SLC2A9) genotype A_B
  mean of change in PANSS-T: −13.17
SNP_A-1975928 (SLC2A9) genotype B_B*
  mean of change in PANSS-T: 16.38
SNP_A-1975928 (SLC2A9) genotype nonBB**
  mean of change in PANSS-T: −13.11
SNP_A-1987915 (GPR126) genotype A_A
  mean of change in PANSS-T: −9.87
SNP_A-1987915 (GPR126) genotype A_B
  mean of change in PANSS-T: −9.61
SNP_A-1987915 (GPR126) genotype B_B**
  mean of change in PANSS-T: −17.29
SNP_A-1987915 (GPR126) genotype nonBB*
  mean of change in PANSS-T: −9.67
SNP_A-2007721 (LOC58486) genotype A_A
  mean of change in PANSS-T: −4.55
SNP_A-2007721 (LOC58486) genotype A_B**
  mean of change in PANSS-T: −22.64
SNP_A-2007721 (LOC58486) genotype B_B
  mean of change in PANSS-T: −9.55
SNP_A-2007721 (LOC58486) genotype nonAB*
  mean of change in PANSS-T: −9.52
SNP_A-2044214 (HNT) genotype A_A
  mean of change in PANSS-T: −15.71
SNP_A-2044214 (HNT) genotype A_B*
  mean of change in PANSS-T: −7.43
SNP_A-2044214 (HNT) genotype B_B
  mean of change in PANSS-T: −14.43
SNP_A-2044214 (HNT) genotype nonAB**
  mean of change in PANSS-T: −15.26
SNP_A-2048427 (NPAS3) genotype A_A
  mean of change in PANSS-T: −19.94
SNP_A-2048427 (NPAS3) genotype A_B
  mean of change in PANSS-T: −20.15
SNP_A-2048427 (NPAS3) genotype B_B*
  mean of change in PANSS-T: −9.20
SNP_A-2048427 (NPAS3) genotype nonBB**
  mean of change in PANSS-T: −20.12
SNP_A-2070454 (NKX2-5) genotype A_A
  mean of change in PANSS-T: −9.88
SNP_A-2070454 (NKX2-5) genotype A_B
  mean of change in PANSS-T: −10.39
SNP_A-2070454 (NKX2-5) genotype B_B**
  mean of change in PANSS-T: −18.31
SNP_A-2070454 (NKX2-5) genotype nonBB*
  mean of change in PANSS-T: −10.23
SNP_A-2076797 (NUDT9P1) genotype A_A
  mean of change in PANSS-T: −7.14
SNP_A-2076797 (NUDT9P1) genotype A_B**
  mean of change in PANSS-T: −18.73
SNP_A-2076797 (NUDT9P1) genotype B_B
  mean of change in PANSS-T: −6.04
SNP_A-2076797 (NUDT9P1) genotype nonAB*
  mean of change in PANSS-T: −6.61
SNP_A-2103099 (HTR1A) genotype A_A
  mean of change in PANSS-T: −17.43
SNP_A-2103099 (HTR1A) genotype A_B*
  mean of change in PANSS-T: −8.31
SNP_A-2103099 (HTR1A) genotype B_B
  mean of change in PANSS-T: −16.12
SNP_A-2103099 (HTR1A) genotype nonAB**
  mean of change in PANSS-T: −16.60
SNP_A-2120958 genotype A_A
  mean of change in PANSS-T: −13.95
SNP_A-2120958 genotype A_B
  mean of change in PANSS-T: −13.71
SNP_A-2120958 genotype B_B*
  mean of change in PANSS-T: 2.48
SNP_A-2120958 genotype nonBB**
  mean of change in PANSS-T: −13.85
SNP_A-2170121 (C6) genotype A_A
  mean of change in PANSS-T: −8.94
SNP_A-2170121 (C6) genotype A_B**
  mean of change in PANSS-T: −21.93
SNP_A-2170121 (C6) genotype B_B
  mean of change in PANSS-T: −11.50
SNP_A-2170121 (C6) genotype nonAB*
  mean of change in PANSS-T: −9.17
SNP_A-2274533 (LZTS1) genotype A_A**
  mean of change in PANSS-T: −15.95
SNP_A-2274533 (LZTS1) genotype A_B
  mean of change in PANSS-T: −6.04
SNP_A-2274533 (LZTS1) genotype B_B
  mean of change in PANSS-T: −6.21
SNP_A-2274533 (LZTS1) genotype nonAA*
  mean of change in PANSS-T: −6.08
SNP_A-2283283 (XKR4) genotype A_A*
  mean of change in PANSS-T: −3.30
SNP_A-2283283 (XKR4) genotype A_B
  mean of change in PANSS-T: −14.57
SNP_A-2283283 (XKR4) genotype B_B
  mean of change in PANSS-T: −15.66
SNP_A-2283283 (XKR4) genotype nonAA**
  mean of change in PANSS-T: −15.02
SNP_A-2284243 (GRIA4) genotype A_A
  mean of change in PANSS-T: −15.30
SNP_A-2284243 (GRIA4) genotype A_B
  mean of change in PANSS-T: −15.17
SNP_A-2284243 (GRIA4) genotype B_B*
  mean of change in PANSS-T: −3.30
SNP_A-2284243 (GRIA4) genotype nonBB**
  mean of change in PANSS-T: −15.22
SNP_A-4204396 (CDH13) genotype A_A
  mean of change in PANSS-T: −13.72
SNP_A-4204396 (CDH13) genotype A_B
  mean of change in PANSS-T: −14.04
SNP_A-4204396 (CDH13) genotype B_B*
  mean of change in PANSS-T: 4.89
SNP_A-4204396 (CDH13) genotype nonBB**
  mean of change in PANSS-T: −13.84
SNP_A-4212785 (PPP1R3B) genotype A_A*
  mean of change in PANSS-T: 25.90
SNP_A-4212785 (PPP1R3B) genotype A_B
  mean of change in PANSS-T: −13.66
SNP_A-4212785 (PPP1R3B) genotype B_B
  mean of change in PANSS-T: −13.56
SNP_A-4212785 (PPP1R3B) genotype nonAA**
  mean of change in PANSS-T: −13.60
SNP_A-4230979 (ASB3) genotype A_A
  mean of change in PANSS-T: −6.70
SNP_A-4230979 (ASB3) genotype A_B
  mean of change in PANSS-T: −8.77
SNP_A-4230979 (ASB3) genotype B_B**
  mean of change in PANSS-T: −18.82
SNP_A-4230979 (ASB3) genotype nonBB*
  mean of change in PANSS-T: −8.34
SNP_A-4256833 (MLCK) genotype A_A
  mean of change in PANSS-T: −15.19
SNP_A-4256833 (MLCK) genotype A_B*
  mean of change in PANSS-T: −6.20
SNP_A-4256833 (MLCK) genotype B_B
  mean of change in PANSS-T: −15.15
SNP_A-4256833 (MLCK) genotype nonAB**
  mean of change in PANSS-T: −15.15
SNP_A-4258279 (RRM1) genotype A_A
  mean of change in PANSS-T: −13.42
SNP_A-4258279 (RRM1) genotype A_B*
  mean of change in PANSS-T: −2.55
SNP_A-4258279 (RRM1) genotype B_B
  mean of change in PANSS-T: −14.72
SNP_A-4258279 (RRM1) genotype nonAB**
  mean of change in PANSS-T: −14.70
